The source made the active and inactive calls. The rule behind the calls is not given here.
Legend:
CD4+ve Th = experiment: Immunosuppressive activity in C57BL/6 mouse SMNCs-derived CD4+ T cells assessed as inhibition of concanavalinA-stimulated cell proliferation at 1 uM measured after 5 to 7 days by CFSE staining based FACScan flowcytometry; assay type: functional; settings: time 5-7 day
[1] = Cytotoxicity against C57BL/6 mouse spleen mononuclear cells assessed as cell viability at 0.5 to 1 uM measured after 48 hrs by CCK-8 assay; assay type: cell-based; settings: mononuclear cell line, dose 0.5-1 µM

SMILES | Activity (CD4+ve Th) | Activity [1]
Cc1ccc(O)cc1CC[C@]1(O)C(=O)CC[C@]2(C)[C@@H]([C@H](C)/C=C/[C@@H](C)C(C)C)C[C@@H](O)[C@H]21 | inactive | Non-Toxic
C=C(CC[C@@H](C)[C@H]1CC[C@@H]2[C@]1(C)CC[C@@H](O)[C@@]2(O)CCc1cc(O)ccc1C)C(C)C | Active | Non-Toxic
Cc1ccc(O)cc1CC[C@@H]1[C@H](O)CC[C@]2(C)[C@@H]([C@H](C)/C=C/CC(C)C)CC[C@@H]12 | Active | Non-Toxic
Cc1ccc(O)cc1CC[C@]1(O)[C@H](O)CC[C@]2(C)[C@@H]([C@H](C)CC[C@H](C)C(C)C)CC[C@H]21 | Active | Non-Toxic
C/C=C(/CC[C@@H](C)[C@H]1CC[C@@H]2[C@]1(C)CC[C@@H](O)[C@@]2(O)CCc1cc(O)ccc1C)C(C)C | inactive | Non-Toxic
Cc1ccc(O)cc1CC[C@]1(O)[C@H](O)CC[C@]2(C)[C@@H]([C@H](C)CCCC(C)C)CC[C@H]21 | Active | Non-Toxic
CC(C)=CCC[C@@H](C)[C@H]1CC[C@H]2[C@H](CCc3cc(O)ccc3C)[C@H](O)CC[C@]12C [CALICOFEROL G] | Active | Non-Toxic
Cc1ccc(O)cc1CC[C@]1(O)[C@H](O)CC[C@]2(C)[C@@H]([C@H](C)/C=C/[C@@H](C)C(C)C)CC[C@H]21 | Active | Non-Toxic
Cc1ccc(O)cc1CC[C@@H]1[C@H](O)CC[C@]2(C)[C@@H]([C@H](C)CCCC(C)C)CC[C@@H]12 [ASTROGORGIADIOL] | Active | Non-Toxic
C=C(CC[C@@H](C)[C@H]1CC[C@H]2[C@H](CCc3cc(O)ccc3C)[C@H](O)CC[C@]12C)C(C)C [CALICOFEROL C] | Active | Non-Toxic
Cc1ccc(O)cc1CC[C@@H]1[C@H](O)CC[C@]2(C)[C@@H]([C@H](C)CCCC(C)C)[C@@H](O)C[C@@H]12 [CALICOFEROL B] | Active | Non-Toxic
Cc1ccc(O)cc1CC[C@@H]1[C@H](O)CC[C@]2(C)[C@@H]([C@H](C)/C=C/[C@@H](C)C(C)C)CC[C@@H]12 | Active | Non-Toxic
Cc1ccc(O)cc1CC[C@]1(O)[C@H](O)CC[C@]2(C)[C@@H]([C@H](C)/C=C/CC(C)C)CC[C@H]21 | Active | Non-Toxic
Cc1ccc(O)cc1CC[C@]1(O)[C@H](O)CC[C@]2(C)[C@@H]([C@H](C)CC[C@@H](C)C(C)C)CC[C@H]21 | Active | Non-Toxic
Cc1ccc(O)cc1CC[C@]1(O)C(=O)CC[C@]2(C)[C@@H]([C@H](C)/C=C/CC(C)C)CC[C@H]21 | Active | Non-Toxic
Cc1ccc(O)cc1CC[C@]1(O)C(=O)CC[C@]2(C)[C@@H]([C@H](C)/C=C/[C@@H](C)C(C)C)CC[C@H]21 | Active | Non-Toxic

Source: ChEMBL document CHEMBL4834442, “Immunosuppressive 9,10-Secosteroids from the Gorgonian Verrucella umbraculum Collected in the South China Sea” (J Nat Prod, 2021)
